Assay results: PubChem BioAssay (NCI)
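Each compound was tested at five concentrations against cells in 96-well plates for 48 hours. GI50 = concentration required for 50% inhibition of growth. TGI denotes the concentration required for complete inhibition of growth.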

What was measured:
Assay in all cases: NCI tumour cell line growth inhibition, 48 h
NCI-H226 lung = system: NCI-H226 lung
NCI-H23 lung = system: NCI-H23 lung
NCI-H460 lung = system: NCI-H460 lung
NCI-H522 lung = system: NCI-H522 lung
NCI/ADR-RES ovarian = system: NCI/ADR-RES ovarian
OVCAR-3 ovarian = system: OVCAR-3 ovarian
OVCAR-4 ovarian = system: OVCAR-4 ovarian
OVCAR-5 ovarian = system: OVCAR-5 ovarian
OVCAR-8 ovarian = system: OVCAR-8 ovarian
PC-3 prostate = system: PC-3 prostate
RPMI-8226 leukemia = system: RPMI-8226 leukemia
SF-268 CNS = system: SF-268 CNS
SF-295 CNS = system: SF-295 CNS
SF-539 CNS = system: SF-539 CNS
SK-MEL-2 melanoma = system: SK-MEL-2 melanoma
SK-MEL-28 melanoma = system: SK-MEL-28 melanoma
SK-MEL-5 melanoma = system: SK-MEL-5 melanoma
SK-OV-3 ovarian = system: SK-OV-3 ovarian
SN12C renal = system: SN12C renal
SNB-19 CNS = system: SNB-19 CNS
SNB-75 CNS = system: SNB-75 CNS
SR leukemia = system: SR leukemia
T-47D breast = system: T-47D breast
TK-10 renal = system: TK-10 renal
U251 CNS = system: U251 CNS
UACC-257 melanoma = system: UACC-257 melanoma
UACC-62 melanoma = system: UACC-62 melanoma
UO-31 renal = system: UO-31 renal

COc1cc(/C=C/C(=O)c2ccccc2O)ccc1OCCCOc1cc2c(cc1OC)C(=O)N1CCC[C@H]1C=N2
GI50 (NCI-H226 lung): 181 nM | TGI (NCI-H226 lung): 541 nM | GI50 (NCI-H23 lung): 36.3 nM | TGI (NCI-H23 lung): 151 nM | GI50 (NCI-H460 lung): 51.1 nM | TGI (NCI-H460 lung): 11100 nM | GI50 (NCI-H522 lung): 66.2 nM | TGI (NCI-H522 lung): 453 nM | GI50 (NCI/ADR-RES ovarian): 345 nM | TGI (NCI/ADR-RES ovarian): 16800 nM | GI50 (OVCAR-3 ovarian): 28.9 nM | TGI (OVCAR-3 ovarian): 124 nM | GI50 (OVCAR-4 ovarian): 116 nM | TGI (OVCAR-4 ovarian): 15200 nM | GI50 (OVCAR-5 ovarian): 35.4 nM | TGI (OVCAR-5 ovarian): 1160 nM | GI50 (OVCAR-8 ovarian): 75.9 nM | TGI (OVCAR-8 ovarian): 13500 nM | GI50 (PC-3 prostate): 54.1 nM | TGI (PC-3 prostate): 7510 nM | GI50 (RPMI-8226 leukemia): 28.2 nM | TGI (RPMI-8226 leukemia): 75.8 nM | GI50 (SF-268 CNS): 24.7 nM | TGI (SF-268 CNS): 64 nM | GI50 (SF-295 CNS): 28.1 nM | TGI (SF-295 CNS): 89.5 nM | GI50 (SF-539 CNS): 35.9 nM | TGI (SF-539 CNS): 118 nM | GI50 (SK-MEL-2 melanoma): 99.9 nM | TGI (SK-MEL-2 melanoma): 392 nM | GI50 (SK-MEL-28 melanoma): 47.6 nM | TGI (SK-MEL-28 melanoma): 109 nM | GI50 (SK-MEL-5 melanoma): 57.7 nM | TGI (SK-MEL-5 melanoma): 167 nM | GI50 (SK-OV-3 ovarian): 316 nM | TGI (SK-OV-3 ovarian): 3820 nM | GI50 (SN12C renal): 52.1 nM | TGI (SN12C renal): 1300 nM | GI50 (SNB-19 CNS): 193 nM | GI50 (SNB-75 CNS): 46.8 nM | TGI (SNB-75 CNS): 222 nM | GI50 (SR leukemia): 18.4 nM | TGI (SR leukemia): 52.3 nM | GI50 (T-47D breast): 152 nM | GI50 (TK-10 renal): 79.4 nM | TGI (TK-10 renal): 1620 nM | GI50 (U251 CNS): 22.6 nM | TGI (U251 CNS): 51.1 nM | GI50 (UACC-257 melanoma): 158 nM | TGI (UACC-257 melanoma): 527 nM | GI50 (UACC-62 melanoma): 38.8 nM | TGI (UACC-62 melanoma): 102 nM | GI50 (UO-31 renal): 81.2 nM | TGI (UO-31 renal): 771 nM
